Article PMC9668969 (Nature Communications, 2022)

System: WT ELIC
Test: Fluorescence stopped-flow liposomal Tl+ flux assay, symmetric liposomes
Assay type: biochemical, Erwinia chrysanthemi
Procedure: The fluorescence sequential-mixing stopped-flow liposomal flux measurements were carried using an SX20 stopped-flow spectrofluorometer (Applied Photophysics) and Pro-Data SX software[13],[30]. 7.5 mg of the respective lipid mixture (POPC, 1:1 POPC: POPE, 1:1 POPC:POPG, 3:1 POPC:POPE, 3:1 POPC:POPG, 2:1:1 POPC:POPE:POPG) was dried in a glass vial to a thin film under a constant stream of N2. The lipids were then further dried under vacuum in a desiccator overnight. The following day the lipids were hydrated in 500 µl of reconstitution buffer (100 mM NaNO3, 10 mM HEPES, pH 7) (Buffer R), 250 µl of 75 mM 8-Aminonaphthalene-1,3,6-Trisulfonic Acid (ANTS, ThermoFisher Scientific) in buffer R, and doped with ~18 mg of CHAPS (Anatrace). The mixture was vortexed and then sonicated with heat until completely solubilized. Following the sonication, the solution was brought to RT then 3.5 µl of 6.7 mg/ml ELIC in Buffer A with 0.02% DDM was added (3 µg per mg of lipid). This combined solution was incubated at RT for 30 min, followed by the addition of 1 ml of 1:1 v/v SM-2 BioBeads in Buffer R and an additional 250 µl of 75 mM ANTS in Buffer R. This mixture was incubated at RT for 2.5 hr with gentle mixing. The liposome suspension was then extruded with an Avanti mini-extruder and 0.1 µm membrane (30×). The extruded liposomes were stored at 13 °C overnight with gentle rotation. The next day, the liposomes were diluted to 2.5 mL using assay buffer (140 mM NaNO3, 10 mM HEPES, pH 7) (Stopped-flow Buffer A), loaded into a PD-10 desalting column (Cytiva), eluted with 3 mL of Stopped-flow Buffer A and subsequently diluted 5-fold with Stopped-flow Buffer A.
Using propylamine as the agonist, the assay and analysis was carried out as previously described[13],[30]. ELIC-containing liposomes were first mixed 1:1 with Buffer A containing 2× the concentration of propylamine. After a variable delay of 10 ms to 25 s, the sample was then mixed 1:1 with a quenching buffer (90 mM NaNO3, 50 mM TlNO3, 10 mM HEPES, pH 7), and ANTS fluorescence (ex. 360 nm, fluorescence above 420 nm) was recorded for 1 s. For each delay time, 5 repeat measurements were obtained. The data were collected using Applied Photophysics Pro-Data SX software. The fluorescence quenching traces were fit to a stretched exponential (Eq. 2a) and the rate of Tl^+ influx was determined at 2 ms (Eq. 2b).2a Ft=F∞+F0−F∞⋅e^−t/τ^β 2b kt=β/τ⋅2ms/τ^(β−1) where Ft, F∞, F0 are the fluorescence at time t, final fluorescence and initial fluorescence. τ is the time constant, β the stretched exponential factor, and kt the calculated rate of Tl^+ influx at 2 ms. The time course of desensitization was also fit to a double exponential and a weighted time constant was calculated as was done for the patch-clamp data using Origin 2019b. All replicates were taken from independent samples.

CCCCCCCC/C=C\CCCCCCCC(=O)OC(COC(=O)CCCCCCCCCCCCCCC)COP(=O)(O)OCC(O)CO (stereo not drawn) [POPG, 1-palmitoyl-2-oleoyl-phosphatidylglycerol]
time constant of desensitization (25% POPG in symmetric liposomes): ~ 6 s | effect on desensitization (25–50 mol% in binary mixtures with POPC, 10 mM propylamine): slowed desensitization | time constant of desensitization (50% POPG in symmetric liposomes): ~ 12 s
